Measurements reported in US10227357B2, “Compounds and methods for kinase modulation, and indications therefor” (Plexxikon Inc., priority 2012, dated 2019).

Columns and labels:
c-kit kinase = target: T1, c-kit kinase (Homo sapiens, UniProt P10721); assay: c-Kit biochemical assay, AlphaScreen, 10 μM ATP; conditions: c-kit biochemical inhibitory activity; read-out: Biochemical activity (IC50 μM) Kit
T1 construct: The c-kit (or kinase domain thereof) is an active kinase in AlphaScreen; poly-Histidine tag (in-house protein only) (cleaved yes); host or cells: E. coli BL21(DE3)RIL, co-expressed with PTP1B
Outline: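 His-tagged c-Kit expressed in E. coli with co-expressed PTP1B (dephosphorylated), tag removed; 0.1 ng per reaction with biotinylated-peptide substrate in 50 mM HEPES pH 7.2, 5 mM MgCl2, 5 mM MnCl2, 5% DMSO, 10 μM ATP, 1 h at room temperature. Phosphorylation detected by AlphaScreen (streptavidin donor, PY20 acceptor beads); IC50 from 8-point 1:3 dilution series.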

c-kit mutant D816V = target: T2, c-kit mutant D816V (Homo sapiens, UniProt P10721, D816V/DEL694-753); assay: c-Kit mutant D816V biochemical assay, AlphaScreen; conditions: c-kit D816V biochemical inhibitory activity; read-out: Biochemical activity (IC50 μM) Kit D816V
T2 construct: residues 551-934, kinase insertion domain residues 694-753 deleted; 6x-histidine (N); made in house; host or cells: E. coli Arctic Express (DE3) RIL (Stratagene)
Outline: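 Eight-point, threefold compound series incubated 30 min at room temperature with E. coli-produced D816V kinase, 10 μM ATP, Mg2+/Mn2+ HEPES buffer pH 7.2 and 5% DMSO. After EDTA stop, streptavidin and anti-phosphotyrosine (PY20) AlphaScreen beads gave the read-out, and IC50 was fitted from the concentration–signal curve.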

T2 sequence (P10721 with tags, fused parts or gaps DEL694-753/D816V): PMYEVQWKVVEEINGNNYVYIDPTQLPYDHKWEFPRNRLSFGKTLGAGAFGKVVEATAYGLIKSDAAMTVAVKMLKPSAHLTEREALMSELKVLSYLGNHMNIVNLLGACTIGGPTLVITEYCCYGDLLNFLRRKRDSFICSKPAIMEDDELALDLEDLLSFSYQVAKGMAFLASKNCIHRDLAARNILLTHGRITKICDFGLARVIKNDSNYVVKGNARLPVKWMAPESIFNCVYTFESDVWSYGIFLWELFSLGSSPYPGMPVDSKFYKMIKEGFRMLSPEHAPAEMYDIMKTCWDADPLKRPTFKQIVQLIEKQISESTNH
T1 sequence (P10721 26-976): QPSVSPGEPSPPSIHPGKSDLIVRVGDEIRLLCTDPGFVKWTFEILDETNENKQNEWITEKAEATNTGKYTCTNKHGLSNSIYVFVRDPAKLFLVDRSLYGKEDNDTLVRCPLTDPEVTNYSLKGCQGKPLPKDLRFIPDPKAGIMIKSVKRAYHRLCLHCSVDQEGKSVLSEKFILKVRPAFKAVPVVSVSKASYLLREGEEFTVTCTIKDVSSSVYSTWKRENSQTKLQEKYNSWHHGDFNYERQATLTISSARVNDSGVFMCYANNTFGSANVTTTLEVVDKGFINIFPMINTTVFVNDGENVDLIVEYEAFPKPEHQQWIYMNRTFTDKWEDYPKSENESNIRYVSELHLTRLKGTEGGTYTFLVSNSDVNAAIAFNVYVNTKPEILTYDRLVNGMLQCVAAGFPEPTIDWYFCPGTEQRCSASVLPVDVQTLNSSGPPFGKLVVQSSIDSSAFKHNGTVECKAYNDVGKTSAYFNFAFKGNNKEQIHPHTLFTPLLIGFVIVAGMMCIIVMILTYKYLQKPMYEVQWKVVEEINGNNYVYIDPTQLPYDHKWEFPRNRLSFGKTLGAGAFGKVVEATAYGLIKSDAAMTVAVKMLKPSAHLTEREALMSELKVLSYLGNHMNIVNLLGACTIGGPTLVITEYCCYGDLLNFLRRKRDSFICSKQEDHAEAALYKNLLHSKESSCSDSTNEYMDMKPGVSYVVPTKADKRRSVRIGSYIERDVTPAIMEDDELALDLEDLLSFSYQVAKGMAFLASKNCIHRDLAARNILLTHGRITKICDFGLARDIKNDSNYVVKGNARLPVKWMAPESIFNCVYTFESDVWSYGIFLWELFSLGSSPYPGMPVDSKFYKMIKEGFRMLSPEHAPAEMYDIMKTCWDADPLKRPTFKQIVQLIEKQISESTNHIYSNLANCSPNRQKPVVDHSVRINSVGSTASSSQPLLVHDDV

| Compound | IC50 (c-kit kinase) [µM] | IC50 (c-kit mutant D816V) [µM] |
| --- | --- | --- |
| Cc1ccc(S(=O)(=O)Nc2ccc(-c3ncnc4[nH]c(C)nc34)cc2)cc1 [P-0450, 4-methyl-N-[4-(8-methyl-9H-purin-6-yl)phenyl]benzenesulfonamide] | 10 to 200 | 1 to 10 |
| Cc1ccc(S(=O)(=O)NC2CCN(c3ncnc4[nH]c(-c5cnn(C)c5)cc34)CC2)cc1 [P-0451, 4-methyl-N-[1-[6-(1-methylpyrazol-4-yl)-7H-pyrrolo[2,3-d]pyrimidin-4-yl]-4-piperidyl]benzenesulfonamide] | 1 to 10 | 0.0001 to 1 |
| Cn1cc(-c2cc3c(N4CCC(NS(=O)(=O)c5ccc6c(c5)CCC6)CC4)ncnc3[nH]2)cn1 [P-0452, N-[1-[6-(1-methylpyrazol-4-yl)-7H-pyrrolo[2,3-d]pyrimidin-4-yl]-4-piperidyl]indane-5-sulfonamide] | 1 to 10 | 0.0001 to 1 |
| Cc1ccc(S(=O)(=O)NC2CCN(c3ncnc4[nH]c(-c5cnn(C)c5)cc34)CC2)s1 [P-0454, 5-methyl-N-[1-[6-(1-methylpyrazol-4-yl)-7H-pyrrolo[2,3-d]pyrimidin-4-yl]-4-piperidyl]thiophene-2-sulfonamide] | 10 to 200 | 0.0001 to 1 |
| Cc1ccc2sc(S(=O)(=O)NC3CCN(c4ncnc5[nH]c(-c6cnn(C)c6)cc45)CC3)cc2c1 [P-0455, 5-methyl-N-[1-[6-(1-methylpyrazol-4-yl)-7H-pyrrolo[2,3-d]pyrimidin-4-yl]-4-piperidyl]benzothiophene-2-sulfonamide] | 1 to 10 | 0.0001 to 1 |
| Cn1cc(-c2cc3c(N4CCC(NS(=O)(=O)c5ccc6c(c5)CCO6)CC4)ncnc3[nH]2)cn1 [P-0457, N-[1-[6-(1-methylpyrazol-4-yl)-7H-pyrrolo[2,3-d]pyrimidin-4-yl]-4-piperidyl]-2,3-dihydrobenzofuran-5-sulfonamide] | 10 to 200 | 0.0001 to 1 |
| Cn1cc(-c2cc3c(N4CCC(NS(=O)(=O)c5ccc(Cl)s5)CC4)ncnc3[nH]2)cn1 [P-0458, 5-chloro-N-[1-[6-(1-methylpyrazol-4-yl)-7H-pyrrolo[2,3-d]pyrimidin-4-yl]-4-piperidyl]thiophene-2-sulfonamide] | 10 to 200 | 0.0001 to 1 |
| COc1cc(-c2cc3c(N4CCC(NS(=O)(=O)c5ccc(OC(F)(F)F)cc5)CC4)ncnc3[nH]2)ccn1 [P-0460, N-[1-[6-(2-methoxy-4-pyridyl)-7H-pyrrolo[2,3-d]pyrimidin-4-yl]-4-piperidyl]-4-(trifluoromethoxy)benzenesulfonamide] | 10 to 200 | 10 to 200 |
| Cn1cc(-c2cc3c(N4CCC(NS(=O)(=O)c5cc(Cl)c(Cl)s5)CC4)ncnc3[nH]2)cn1 [P-0461, 4,5-dichloro-N-[1-[6-(1-methylpyrazol-4-yl)-7H-pyrrolo[2,3-d]pyrimidin-4-yl]-4-piperidyl]thiophene-2-sulfonamide] | 1 to 10 | 0.0001 to 1 |
| Cn1cc(-c2cc3c(N4CCC(NS(=O)(=O)c5cc(Cl)cs5)CC4)ncnc3[nH]2)cn1 [P-0462, 4-chloro-N-[1-[6-(1-methylpyrazol-4-yl)-7H-pyrrolo[2,3-d]pyrimidin-4-yl]-4-piperidyl]thiophene-2-sulfonamide] | 1 to 10 | 0.0001 to 1 |
| COc1ncc(-c2cc3c(N4CCC(NS(=O)(=O)c5ccc(OC(F)(F)F)cc5)CC4)ncnc3[nH]2)cn1 [P-0465, N-[1-[6-(2-methoxypyrimidin-5-yl)-7H-pyrrolo[2,3-d]pyrimidin-4-yl]-4-piperidyl]-4-(trifluoromethoxy)benzenesulfonamide] | 10 to 200 | 10 to 200 |
| Cn1cc(-c2cc3c(N4CCC(NS(=O)(=O)c5cc6ccccc6s5)CC4)ncnc3[nH]2)cn1 [P-0470, N-[1-[6-(1-methylpyrazol-4-yl)-7H-pyrrolo[2,3-d]pyrimidin-4-yl]-4-piperidyl]benzothiophene-2-sulfonamide] | 0.0001 to 1 | 0.0001 to 1 |
| Cn1cc(-c2cc3c(N4CCC(NS(=O)(=O)c5ccc(C6(C#N)CC6)cc5)CC4)ncnc3[nH]2)cn1 [P-0486, 4-(1-cyanocyclopropyl)-N-[1-[6-(1-methylpyrazol-4-yl)-7H-pyrrolo[2,3-d]pyrimidin-4-yl]-4-piperidyl]benzenesulfonamide] | 1 to 10 | 1 to 10 |
| CC(C)Oc1ccc(S(=O)(=O)NC2CCN(c3ncnc4[nH]c(-c5cnn(C)c5)cc34)CC2)cc1 [P-0488, 4-isopropoxy-N-[1-[6-(1-methylpyrazol-4-yl)-7H-pyrrolo[2,3-d]pyrimidin-4-yl]-4-piperidyl]benzenesulfonamide] | 0.0001 to 1 | 0.0001 to 1 |
| Cn1cc(-c2cc3c(N4CCC(NS(=O)(=O)c5ccc(Cl)cc5)CC4)ncnc3[nH]2)cn1 [P-0491, 4-chloro-N-[1-[6-(1-methylpyrazol-4-yl)-7H-pyrrolo[2,3-d]pyrimidin-4-yl]-4-piperidyl]benzenesulfonamide] | 1 to 10 | 0.0001 to 1 |
| Cc1nc(-c2cccc(NC(=O)NC3CCN(c4ncnc5[nH]ccc45)CC3)c2)no1 [P-0507, 1-[3-(5-methyl-1,2,4-oxadiazol-3-yl)phenyl]-3-[1-(7H-pyrrolo[2,3-d]pyrimidin-4-yl)-4-piperidyl]urea] | 10 to 200 | 10 to 200 |
| O=C(Nc1cccnc1)NC1CCN(c2ncnc3[nH]ccc23)CC1 [P-0508, 1-(3-pyridyl)-3-[1-(7H-pyrrolo[2,3-d]pyrimidin-4-yl)-4-piperidyl]urea] | 10 to 200 | 10 to 200 |
| O=C(NCc1cccc(F)c1)NC1CCN(c2ncnc3[nH]ccc23)CC1 [P-0510, 1-[(3-fluorophenyl)methyl]-3-[1-(7H-pyrrolo[2,3-d]pyrimidin-4-yl)-4-piperidyl]urea] | 10 to 200 | 10 to 200 |
| O=C(Nc1cccc(C(F)(F)F)c1)NC1CCN(c2ncnc3[nH]ccc23)CC1 [P-0515, 1-[1-(7H-pyrrolo[2,3-d]pyrimidin-4-yl)-4-piperidyl]-3-[3-(trifluoromethyl)phenyl]urea] | 1 to 10 | 10 to 200 |
| CCc1ccc(S(=O)(=O)NC2CCN(c3ncnc4[nH]ccc34)CC2)cc1 [P-0525, 4-ethyl-N-[1-(7H-pyrrolo[2,3-d]pyrimidin-4-yl)-4-piperidyl]benzenesulfonamide] | 10 to 200 | 10 to 200 |
| O=S(=O)(NC1CCN(c2ncnc3[nH]ccc23)CC1)c1cc(F)ccc1F [P-0539, 2,5-difluoro-N-[1-(7H-pyrrolo[2,3-d]pyrimidin-4-yl)-4-piperidyl]benzenesulfonamide] | 10 to 200 | 10 to 200 |
| COc1ccc(S(=O)(=O)NC2CCN(c3ncnc4[nH]ccc34)CC2)cc1 [P-0540, 4-methoxy-N-[1-(7H-pyrrolo[2,3-d]pyrimidin-4-yl)-4-piperidyl]benzenesulfonamide] | 10 to 200 | 10 to 200 |
| NC1CCN(c2ncnc3[nH]ccc23)CC1 [P-0541, 1-(7H-pyrrolo[2,3-d]pyrimidin-4-yl)piperidin-4-amine] | 10 to 200 | 1 to 10 |
| COc1ccc(NC(=O)NC2CCN(c3ncnc4[nH]ccc34)CC2)cc1 [P-0543, 1-(4-methoxyphenyl)-3-[1-(7H-pyrrolo[2,3-d]pyrimidin-4-yl)-4-piperidyl]urea] | 10 to 200 | 10 to 200 |
